Reference: article PMC2976827 (Neuropharmacology, 2010)

Target: T1, GluK1 (Rattus norvegicus, UniProt P22756, DEL560-681)
T1 sequence (P22756 446-559): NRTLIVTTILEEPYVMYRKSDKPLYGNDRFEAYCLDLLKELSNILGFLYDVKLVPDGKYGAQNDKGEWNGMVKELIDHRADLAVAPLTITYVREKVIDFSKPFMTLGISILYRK
T1 sequence (P22756 682-821): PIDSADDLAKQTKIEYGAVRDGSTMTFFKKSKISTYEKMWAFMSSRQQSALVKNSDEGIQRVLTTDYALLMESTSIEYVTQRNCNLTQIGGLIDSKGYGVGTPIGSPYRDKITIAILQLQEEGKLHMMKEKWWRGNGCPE
Test: crystal structure
Format: binding

Structure (SMILES) | Kd
Cc1cn(C[C@H](N)C(=O)O)c(=O)n(Cc2c(C(=O)O)sc(Br)c2Br)c1=O [UBP315, (S)-1-(2-Amino-2-carboxyethyl)-3-(2-carboxy-4,5-dibromothiophene-3-yl-methyl)-5-methylpyrimidine-2,4-dione] | 33 nM
N[C@@H](Cn1cc(Br)c(=O)n(Cc2ccsc2C(=O)O)c1=O)C(=O)O [UBP318, (S)-1-(2-amino-2-carboxyethyl)-5-bromo-3-(2-carboxythiophene-3-yl-methyl)pyrimidine-2,4-dione] | 186 nM
